# Source: US20240390452A1, “Protective Agent Against Endothelial Dysfunction” (THE TRUSTEES OF THE UNIVERSITY OF PENNSYLVANIA, priority 2023, published 2024)
# Entries after “also recorded” stand apart in the source; their conditions may differ.
# Columns and labels:
# [1] = system: lung oxidative injury; settings: earlier work; cited from earlier work
# [2] = system: Human Pulmonary Microvascular Endothelial Cells (HPMVEC); type: cell-based; settings: HPMVEC pre-treated 3 hrs with PIP-2 in liposomes (10 nM), then COVID-19 serum 1 hr; CellROX fluorescence
# [3] = system: ICAM-1; test: ICAM-1 immunostaining in HPMVEC exposed to COVID-19 serum; type: cell-based, human; settings: HPMVEC pre-treated 3 hrs with PIP-2 in liposomes (10 nM), then COVID-19 serum; anti-ICAM immunostaining
# Method: Primary cultures of Human Pulmonary Microvascular Endothelial Cells (HPMVEC) were grown in a T-25 culture dish and routinely maintained in Dulbecco's Modified Eagle Medium (DMEM) supplemented with 10% fetal bovine serum (FBS), 1× glutamax, 1× antibiotics, and endothelial cell growth supplement (Millipore Upstate). Cells were grown and maintained in 5% CO2 at 37° C. Once grown to the appropriate density, cells were then split and grown on coverslips in 35 mm petri dishes. Cells were then treated either with medium supplemented with 10% serum from healthy individuals or COVID-19 patients at admission to ICU and then monitored for ROS production and ICAM-1 induction as described below.
# HPMVEC were incubated for one hour in the incubator at 37° C. and 5% CO2 with medium supplemented with 10% serum either from a healthy individual or from patients suffering from COVID-19. The serum replaced the FBS which was otherwise used as a supplement in DMEM. Post incubation, cells were either fixed for ICAM-1 immuno-staining or the cells were stained for ROS measurement as described below. Serum from one healthy individual and seven COVID-19 patients were used in this study.
# HPMVEC were incubated for three hours in the incubator at 37° C. and 5% CO2 with medium supplemented with either liposomes alone or PIP-2 in liposomes (concentration 10 nM) without 10% FBS. […]
# [4] = system: NLRP3 subunit of the inflammasome; test: NLRP3 immunostaining in cells exposed to COVID-19 serum; type: cell-based, human; settings: cells pre-treated 3 hrs with PIP-2, then COVID-19 serum 1 hr; anti-NLRP3 immunostaining
# Method: (§1) Cells were pre-treated for 3 hrs with PIP-2 and then with COVID-19 serum/normal serum for an hour. Cells were then fixed and NLRP3/caspase-1 were monitored by immunostaining with anti-NLRP3 or activated caspase-1 antibody. FIG. 4A: NLRP3 immunostaining. FIG. 4B: Quantification of the fluorescent signal using Metamorph imaging software *p<0.001. FIG. 4C: Caspase-1 immunostaining. FIG. 4D: Quantification of the fluorescent signal using Metamorph imaging software *p<0.05.
# (§2) HPMVEC were incubated for three hours in the incubator at 37° C. and 5% CO2 with medium supplemented with either liposomes alone or PIP-2 in liposomes (concentration 10 nM) without 10% FBS. After 3 hours of incubation, cells were either treated with serum of a healthy individual or COVID-19 patients at admission to ICU along with either liposomes alone or PIP-2 in liposomes together for one hour and three hours for ROS measurement and ICAM-1 induction respectively.
# [5] = system: caspase-1; test: Activated caspase-1 immunostaining in cells exposed to COVID-19 serum; type: cell-based, human; settings: cells pre-treated 3 hrs with PIP-2, then COVID-19 serum 1 hr; activated caspase-1 antibody immunostaining
# Method: as §1, §2
# [6] = target: T1, phospholipase A2 (PLA2) activity of peroxiredoxin 6 (Prdx6) (Homo sapiens, UniProt P30041); settings: earlier work / WO 2020/037146 A1; cited from earlier work
# T1 sequence (P30041 1-224): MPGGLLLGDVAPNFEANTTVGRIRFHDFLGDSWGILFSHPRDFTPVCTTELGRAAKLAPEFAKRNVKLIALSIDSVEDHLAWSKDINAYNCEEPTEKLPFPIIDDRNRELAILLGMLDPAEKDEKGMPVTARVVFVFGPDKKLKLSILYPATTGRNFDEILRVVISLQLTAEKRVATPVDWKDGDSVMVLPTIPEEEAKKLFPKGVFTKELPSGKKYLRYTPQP
Compound,protection against lung oxidative injury [1],ROS production (endothelial activation) post COVID-19 serum exposure [2],ICAM-1 expression (endothelial inflammatory phenotype) [3],NLRP3 expression [4],caspase 1 expression [5],inhibition of PLA2 (aiPLA2) activity of Prdx6 [6]
CCCCCCCCCCCCCCCCOCC(COCC(F)(F)F)OP(=O)(O)OC (stereo not drawn) [MJ33],able to protect against lung oxidative injury,–,–,–,–,–
"LHDFRHQIL (in liposomes) [PIP-2, tested in liposomes]",–,protected the endothelium from activation; also recorded: significant decrease; also recorded: decreased; also recorded: able to reduce the endothelial activation; also recorded: significantly reverse,prevented the appearance of an endothelial inflammatory phenotype; also recorded: significantly reduced; also recorded: decreased; also recorded: significantly reverse,significantly reduced; also recorded: decreased,significantly reduced; also recorded: decreased,specific for inhibition of aiPLA2 activity
